# Experimental data published in publication PMC8921294, “Inhibition of mitochondrial LonP1 protease by allosteric blockade of ATP binding and hydrolysis via CDDO and its derivatives” (The Journal of Biological Chemistry, 2022).
# Legend:
# 26S proteasome = assay: 26S proteasome-dependent degradation of p53 in HeLa ρ^0 cells (immunoblot); assay type: cell-based, human; conditions: 7 h
# Source text: LonP1 belongs to the AAA^+ superfamily of ATPases Associated with diverse cellular Activities, which mediate various cellular processes such as DNA replication, recombination, chromatin remodeling, ribosomal RNA processing, membrane fusion as well as ATP-dependent proteolysis ([48]). The 26S proteasome consists of the 20S proteolytic core particle, which mediates peptide bond hydrolysis and the 19S regulatory particle containing ATPases belonging to the AAA^+ family ([49]). […] We sought to test the apparent selectivity of CDDO derivatives for LonP1 but not the 26S in cultured cells. There are no known proteins that are constitutively degraded by LonP1 under baseline conditions, which would permit us to assay protease inhibition by CDDO derivatives. Therefore, we employed experimentally derived HeLa cells lacking mitochondrial DNA (mtDNA) (referred to as HeLa ρ^0 cells) ([50]), in which LonP1 constitutively degrades mitochondrial transcription factor A (TFAM) ([6]). When TFAM fails to bind mtDNA (e.g., when mtDNA is absent), it is rapidly degraded by LonP1, thus providing a readout for protease activity ([6]). An advantage of using this system is that HeLa cells express the human papillomavirus (HPV) E6 protein, which promotes constitutive degradation of p53 by the 26S proteasome. Thus, the effects of CDDO derivatives on LonP1 and the 26S proteasome can be examined in parallel.
# HeLa cells devoid of mitochondrial DNA (HeLa ρ^0) and LCL cells were generated as described previously ([50]). DMEM, RPMI, and fetal bovine serum were purchased from Sigma. All cells were grown with 5% CO2 at 37 °C. LCL cells were cultured in RPMI supplemented with 15% FBS. HeLa Rho 0 cells were cultured in high glucose DMEM (25 mM) (Sigma) supplemented with sodium pyruvate ([…]) and uridine ([…]). CDDO-Me was purchased from Cayman chemicals, and CDDO-AH was synthesized as described previously ([20]). […]
# LonP1^R721G = molecular target: T1, LonP1^R721G (Homo sapiens, UniProt P36776, R721G); assay: NADH-coupled ATPase assay, CODAS mutant LonP1^R721G; assay type: biochemical; conditions: compound 20 μM
# T1 construct: hexa-histidine (N); made in house; host or cells: Rosetta 2 E. coli
# T1 sequence (P36776 68-959 R721G): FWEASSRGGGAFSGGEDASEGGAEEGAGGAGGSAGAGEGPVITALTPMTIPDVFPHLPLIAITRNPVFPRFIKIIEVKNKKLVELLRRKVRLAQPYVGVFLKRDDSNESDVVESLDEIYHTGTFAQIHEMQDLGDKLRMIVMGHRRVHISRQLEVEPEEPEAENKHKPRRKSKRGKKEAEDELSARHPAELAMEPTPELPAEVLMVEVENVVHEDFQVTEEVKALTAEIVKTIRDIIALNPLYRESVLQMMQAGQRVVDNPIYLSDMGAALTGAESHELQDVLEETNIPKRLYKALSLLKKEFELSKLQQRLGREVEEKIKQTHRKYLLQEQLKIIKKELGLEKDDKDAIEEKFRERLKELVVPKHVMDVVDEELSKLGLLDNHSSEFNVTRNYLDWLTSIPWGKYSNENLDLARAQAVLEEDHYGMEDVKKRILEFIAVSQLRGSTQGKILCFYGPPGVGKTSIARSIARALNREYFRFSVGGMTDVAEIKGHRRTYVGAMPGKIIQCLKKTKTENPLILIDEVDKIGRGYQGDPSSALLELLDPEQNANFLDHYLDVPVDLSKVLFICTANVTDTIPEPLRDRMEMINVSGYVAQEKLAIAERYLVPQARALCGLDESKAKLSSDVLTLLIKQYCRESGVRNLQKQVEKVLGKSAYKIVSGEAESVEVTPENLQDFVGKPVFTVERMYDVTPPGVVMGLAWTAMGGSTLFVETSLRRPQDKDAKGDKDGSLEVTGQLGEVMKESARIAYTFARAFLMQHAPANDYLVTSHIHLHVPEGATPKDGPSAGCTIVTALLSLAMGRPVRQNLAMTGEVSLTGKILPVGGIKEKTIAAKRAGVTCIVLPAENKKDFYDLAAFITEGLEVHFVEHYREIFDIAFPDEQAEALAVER
# Protocol: Figure 2 The ATPase activity of wild-type LonP1^WTis blocked by CDDO-Me and CDDO-anhydride by noncompetitive and competitive inhibition, respectively, whereas the CODAS mutant LonP1^R721GATPase is resistant to inhibition. ATPase activities were measured using an NADH-coupled ATPase assay. Wild type and mutant LonP1 proteins (400 nM) were pre-incubated with or without compound for 30 min at room temperature. A and E, LonP1^WT, and (H and I) comparison of LonP1^WT and LonP1^R721G. ATP was titrated and its hydrolysis was measured over 5 min (mean ± S.D., N ≥ 2). B and F, double-reciprocal Lineweaver–Burk plots (mean ± S.D., N ≥ 2). C and G, determination of Ki (mean ± S.D., N ≥ 2). D, determination of αKi (mean ± S.D., N ≥ 2). C, G and H. mean values obtained from linear regression data. CDDO, 2-cyano-3,12-dioxooleana-1,9(11)-dien-28-oic acid.
# ATPase reactions (200 μl total) were performed in 96-well plates at room temperature. LonP1 (400 nM monomer) was preincubated with DMSO (1–2%) vehicle control or CDDO derivatives in buffer (50 mM HEPES-KOH pH 7.5, 5 mM magnesium acetate, 75 mM potassium acetate) for 30 to 45 min at room temperature or 30 °C. […] The change in NADH absorbance at 340 nm was monitored in Spectramax plate reader for 5 min to obtain reaction velocities. […]
Inhibition of LonP1^R721G ATPase compared with LonP1^WT (LonP1^R721G),SMILES,26S proteasome-mediated degradation of p53 (26S proteasome; 20 μM),Protein levels of p53 (26S proteasome; 1 μM),26S proteasome-dependent degradation of p53 (26S proteasome; 0.125 to 0.5 μM)
showed resistance,CC1(C)CC[C@]2(C(=O)OC(=O)[C@]34CCC(C)(C)C[C@H]3[C@H]3C(=O)C=C5[C@@]6(C)C=C(C#N)C(=O)C(C)(C)[C@@H]6CC[C@@]5(C)[C@]3(C)CC4)CC[C@]3(C)[C@H](C(=O)C=C4[C@@]5(C)C=C(C#N)C(=O)C(C)(C)[C@@H]5CC[C@]43C)[C@@H]2C1 [CDDO-anhydride],did not block,–,–
showed resistance,COC(=O)[C@]12CCC(C)(C)C[C@H]1[C@H]1C(=O)C=C3[C@@]4(C)C=C(C#N)C(=O)C(C)(C)[C@@H]4CC[C@@]3(C)[C@]1(C)CC2 [CDDO-Me],–,increased,did not block
